Measured values taken from PMC11528066, “Noninvasive Monitoring of Programmed Death-Ligand 2 Expression with Positron Emission Tomography using ^68Ga-labeled Peptide Antagonist in Preclinical and Exploratory Human Studies” (Research, 2024).
Like-named read-outs stand apart in the source and are kept apart here. Peptide text beside a SMILES is read from it. * marks the point of attachment. NOTA = O=C(O)CN1CCN(CC(=O)O)CCN(CC(=O)*)CC1; AEEEA = NCCOCCOCCOCC(=O)O

Assay: Biodistribution (γ-counter)
Assay type: in vivo, BALB/C nude mice
Details: male, BALB/C nude, mouse, iv, total radioactivity, mean ± SD, n = 3; for tissue uptake at 10 min / tissue to tissue ratio at 10 min: 10 min p.i.; for tissue uptake at 0.5 h / tissue to tissue ratio at 0.5 h: 30 min p.i.; for tissue uptake at 1.5 h / tissue to tissue ratio at 1.5 h: 90 min p.i.
Method: Micro-PET imaging was conducted using an Inveon PET scanner (Siemens, Germany). Dynamic PET examine were acquired over the first 60 min following the simultaneous injection of 7.4 to 9.25 MBq (200 to 250 μCi) of [^68Ga]Ga-HN11-1 and [^68Ga]Ga-HN11-2. After reconstructing the images and delineating the regions of interest (ROIs), time-radioactivity curves were plotted to obtain the Tumor/Muscle (T/M) ratios. %ID/g represents the percentage of the injected dose of the radiotracer that accumulates in a specific tissue per gram of tissue weight. For the biodistribution study, the xenograft models received an intravenous injection of 3.7 to 5.5 MBq (100 to 150 μCi) of [^68Ga]Ga-HN11-1. After the designated period (10, 30, 60, and 90 min), the mice were euthanized, and important tissues and organs were dissected and collected. The samples were counted using the γ-counter for determining the %ID/g, presented as mean ± standard deviation (SD).
A549 cell lines were provided by the China Center for Type Culture Collection (CCTCC) and cultured in RPMI-1640 medium supplemented with 10 % fetal bovine serum and 100 U/mL penicillin-streptomycin. The lentivirus system was implemented to introduce PD-L2 (PDCD1LG2) over-expressed cDNA into the A549 cells. The viral vectors were produced in 293T cells and co-transfected with the psAX2, pMD2G and PD-L2 plasmids. A549 cells transduced with the vectors were selectively grown in 1.6 μg/mL puromycin. Transfection efficiency was identified by WB and real-time quantitative PCR. All the cells were cultured in an incubator at 37° C with 5 % CO2 atmosphere. A549 and A549-PD-L2 cells (5 × 10^6, 200 μL)were subcutaneously implanted into the right shoulder of BALB/C nude mice (male, 4-6 weeks), respectively. When the tumors reached to 5 - 8 mm in diameter, the mice were subjected to in vivo and ex vivo studies. All the mice were purchased from the Laboratory Animal Center of Central South University.

[1] = large intestine, read-out: Large intestine uptake
[2] = muscle, read-out: Muscle uptake
[3] = small intestine, read-out: Small intestine uptake
[4] = tumor and blood, read-out: Tumor/Blood ratio
[5] = tumor and brain, read-out: Tumor/Brain ratio
[6] = tumor and heart, read-out: Tumor/Heart ratio
[7] = tumor and liver, read-out: Tumor/Liver ratio
[8] = tumor and lung, read-out: Tumor/Lung ratio

Q: For CC[C@H](C)[C@H](NC(=O)[C@H](CCCNC(=N)N)NC(=O)CNC(=O)[C@H](CCC(=O)O)NC(=O)[C@H](CC(N)=O)NC(=O)[C@H](Cc1ccc(O)cc1)NC(=O)[C@H](CCCNC(=N)N)NC(=O)[C@H](Cc1ccc(O)cc1)NC(=O)[C@H](Cc1c[nH]cn1)NC(=O)COCCOCCOCCNC(=O)CN1CCN(CC(=O)O)CCN(CC(=O)O)CC1)C(=O)N[C@@H](CCCNC(=N)N)C(=O)N[C@@H](CC(N)=O)C(=O)O [[^68Ga]Ga-HN11-1, metal not drawn] ({NOTA-AEEEA}-HYRYNEGRIRN-OH), which tissue uptake at 10 min (bone, read-out: Bone uptake) is on record?
A: 0.68 ± 0.06 %ID/g

Q: What about the tissue uptake at 0.5 h (bone, read-out: Bone uptake) of the same molecule?
A: 0.6 ± 0.03 %ID/g

Q: What about the tissue uptake at 1 h (bone, 60 min HN11-1 Block, read-out: Bone uptake) of the same molecule?
A: 0.43 ± 0.07 %ID/g

Q: What about the tissue uptake at 1 h (bone, 60 min p.i., read-out: Bone uptake) of the same molecule?
A: 0.41 ± 0.08 %ID/g

Q: And the tissue uptake at 1.5 h (bone, read-out: Bone uptake)?
A: 0.31 ± 0.06 %ID/g

Q: And the tissue uptake at 10 min (brain, read-out: Brain uptake)?
A: 0.17 ± 0.03 %ID/g

Q: What about the tissue uptake at 0.5 h (brain, read-out: Brain uptake) of the same molecule?
A: 0.12 ± 0.03 %ID/g

Q: And the tissue uptake at 1 h (brain, 60 min HN11-1 Block, read-out: Brain uptake)?
A: 0.07 ± 0.01 %ID/g

Q: What about the tissue uptake at 1 h (brain, 60 min p.i., read-out: Brain uptake) of the same molecule?
A: 0.07 ± 0.01 %ID/g

Q: And the tissue uptake at 1.5 h (brain, read-out: Brain uptake)?
A: 0.03 ± 0.01 %ID/g

Q: What about the tissue uptake at 10 min (kidney, read-out: Kidney uptake) of the same molecule?
A: 55.6 ± 6.6 %ID/g

Q: And the tissue uptake at 10 min [1]?
A: 1.02 ± 0.06 %ID/g

Q: What about the tissue uptake at 0.5 h [1] of the same molecule?
A: 0.48 ± 0.09 %ID/g

Q: What about the tissue uptake at 1 h (large intestine, 60 min HN11-1 Block, read-out: Large intestine uptake) of the same molecule?
A: 0.23 ± 0.05 %ID/g

Q: And the tissue uptake at 1 h (large intestine, 60 min p.i., read-out: Large intestine uptake)?
A: 0.21 ± 0.05 %ID/g

Q: And the tissue uptake at 1.5 h [1]?
A: 0.1 ± 0.01 %ID/g

Q: And the tissue uptake at 10 min [2]?
A: 0.89 ± 0.02 %ID/g

Q: And the tissue uptake at 0.5 h [2]?
A: 0.69 ± 0.07 %ID/g

Q: What about the tissue uptake at 1 h (muscle, 60 min HN11-1 Block, read-out: Muscle uptake) of the same molecule?
A: 0.56 ± 0.04 %ID/g

Q: What about the tissue uptake at 1 h (muscle, 60 min p.i., read-out: Muscle uptake) of the same molecule?
A: 0.56 ± 0.09 %ID/g

Q: What about the tissue uptake at 1.5 h [2] of the same molecule?
A: 0.15 ± 0.03 %ID/g

Q: What about the tissue uptake at 10 min [3] of the same molecule?
A: 0.86 ± 0.09 %ID/g

Q: And the tissue uptake at 0.5 h [3]?
A: 0.62 ± 0.04 %ID/g

Q: And the tissue uptake at 1 h (small intestine, 60 min HN11-1 Block, read-out: Small intestine uptake)?
A: 0.34 ± 0.04 %ID/g

Q: What about the tissue uptake at 1 h (small intestine, 60 min p.i., read-out: Small intestine uptake) of the same molecule?
A: 0.21 ± 0.02 %ID/g

Q: What about the tissue uptake at 1.5 h [3] of the same molecule?
A: 0.16 ± 0.05 %ID/g

Q: What about the tissue to tissue ratio at 10 min [4] of the same molecule?
A: 0.58 ± 0.15

Q: And the tissue to tissue ratio at 0.5 h [4]?
A: 2.66 ± 0.47

Q: And the tissue to tissue ratio at 1 h (tumor and blood, 60 min p.i., read-out: Tumor/Blood ratio)?
A: 6.41 ± 0.98

Q: And the tissue to tissue ratio at 1.5 h [4]?
A: 2.58 ± 0.52

Q: What about the tissue to tissue ratio at 1 h (tumor and blood, with HN11-1 (block; amount not stated), 60 min HN11-1 Block, read-out: Tumor/Blood ratio) of the same molecule?
A: 1.94 ± 0.67

Q: What about the tissue to tissue ratio at 10 min [5] of the same molecule?
A: 10.3 ± 3.45

Q: And the tissue to tissue ratio at 0.5 h [5]?
A: 30.9 ± 8.94

Q: And the tissue to tissue ratio at 1 h (tumor and brain, 60 min p.i., read-out: Tumor/Brain ratio)?
A: 31.9 ± 7.97

Q: What about the tissue to tissue ratio at 1.5 h [5] of the same molecule?
A: 12.3 ± 2.45

Q: And the tissue to tissue ratio at 1 h (tumor and brain, with HN11-1 (block; amount not stated), 60 min HN11-1 Block, read-out: Tumor/Brain ratio)?
A: 9.41 ± 2.19

Q: And the tissue to tissue ratio at 10 min [6]?
A: 1.15 ± 0.19

Q: And the tissue to tissue ratio at 0.5 h [6]?
A: 4.13 ± 0.21

Q: And the tissue to tissue ratio at 1 h (tumor and heart, 60 min p.i., read-out: Tumor/Heart ratio)?
A: 12.7 ± 2.22

Q: What about the tissue to tissue ratio at 1.5 h [6] of the same molecule?
A: 3 ± 0.15

Q: What about the tissue to tissue ratio at 1 h (tumor and heart, with HN11-1 (block; amount not stated), 60 min HN11-1 Block, read-out: Tumor/Heart ratio) of the same molecule?
A: 3.68 ± 1.43

Q: And the tissue to tissue ratio at 10 min [7]?
A: 0.56 ± 0.07

Q: What about the tissue to tissue ratio at 0.5 h [7] of the same molecule?
A: 2.61 ± 0.82

Q: And the tissue to tissue ratio at 1 h (tumor and liver, 60 min p.i., read-out: Tumor/Liver ratio)?
A: 2.53 ± 0.75

Q: What about the tissue to tissue ratio at 1.5 h [7] of the same molecule?
A: 2.13 ± 1.27

Q: What about the tissue to tissue ratio at 1 h (tumor and liver, with HN11-1 (block; amount not stated), 60 min HN11-1 Block, read-out: Tumor/Liver ratio) of the same molecule?
A: 0.57 ± 0.27

Q: And the tissue to tissue ratio at 10 min [8]?
A: 1.04 ± 0.22

Q: And the tissue to tissue ratio at 0.5 h [8]?
A: 3.69 ± 0.24
